Earlier results as cited in patent US6107321A, “Diazabicyclooctane derivatives having selective 5-HT1Dalpha agonist activity” (Merck Sharp & Dohme Ltd., priority 1995, dated 2000).

What was measured:
humans = settings: therapeutic doses
[1] = test system: human 5-HT1D.sbsb.α and 5-HT1D.sbsb.β receptor subtypes; settings: cf. WO-A-91/17174, Table 1

- discrimination between the human 5-HT1Dα and 5-HT1Dβ receptor subtypes [1]: barely discriminates
Compound: CNS(=O)(=O)Cc1ccc2[nH]cc(CCN(C)C)c2c1 [sumatriptan]
- adverse cardiovascular events (humans): certain adverse cardiovascular events
